# Experimental data: article PMC7503597 (International Journal of Molecular Sciences, 2020)
# Target: T1, D3R-ELucC (Homo sapiens, UniProt P35462)
# T1 construct: gene DRD3
# Experiment: cell-based
# Details: HEK-293T, read-out: β-Arrestin2 Recruitment / Emax [%]
# T1 sequence (P35462 whole entry): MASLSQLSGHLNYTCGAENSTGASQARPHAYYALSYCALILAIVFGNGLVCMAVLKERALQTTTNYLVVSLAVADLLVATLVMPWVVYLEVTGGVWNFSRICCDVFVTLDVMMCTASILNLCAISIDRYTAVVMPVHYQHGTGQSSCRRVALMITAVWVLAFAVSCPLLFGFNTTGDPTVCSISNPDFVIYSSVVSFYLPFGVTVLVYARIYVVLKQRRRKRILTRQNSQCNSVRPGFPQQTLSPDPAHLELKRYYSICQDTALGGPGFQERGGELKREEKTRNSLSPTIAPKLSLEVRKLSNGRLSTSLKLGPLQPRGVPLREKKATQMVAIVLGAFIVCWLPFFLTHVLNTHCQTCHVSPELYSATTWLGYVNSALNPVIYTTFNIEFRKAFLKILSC
smiles,measurement,value
CCN1CCC[C@H]1CNC(=O)c1cc(S(N)(=O)=O)ccc1OC [S-(−)-sulpiride],Emax,-26 ± 8%
